Experiments:
Format in all cases: cell-based
[1] = test system: Human ovarian carcinoma IGROV-1/Pt (platinum resistant); test: Cytotoxicity test (sulphorodamine B), IGROV-1/Pt; conditions: 24 h incubation, survival 48 h after removal
Description: (§1) Different cell lines deriving from solid tumors were also used. • 1. Human prostate carcinoma PC3 and DU145. These cell lines were maintained in RPMI 1640 medium containing 10% FCS, 1% sodium pyruvate and 1% glutamine; • 2. Human colon adenocarcinoma LoVo. This cell line was maintained in HAM's F-12 medium, containing 10% FCS and 1% glutamine. • 3. Human ovarian carcinoma such as A2780 and A2780/Dx, sensitive and resistant to drugs, respectively (doxorubicin, taxol, etoposide, vincristine); IGROV-1 and IGROV-1/Pt, sensitive and resistant to platinum-based chemotherapy, respectively, were maintained in RPMI 1640 medium containing 10% FCS, 1% sodium pyruvate and 1% glutamine; • 4. Human melanoma MeWo and MeS 2.21, glioblastoma GBM, no small cell lung carcinomas A431, NCI—H460, osteosarcomas SAOS and U2OS were maintained in RPMI 1640 medium containing 10% FCS, 1% sodium pyruvate and 1% glutamine.
(§2) The cytotoxicity tests were carried out using NB4 or HL-60 cells in suspension (10000/well). The cells were seeded in a volume of 250 μl in 96 well plates and incubated for 24 hours at 37° C. […] The optical density was measured using a Multiskan spectrophotometer at 540 nm. […]
(§3) Cell survival was determined by incubation with ST1926 for 24 hours, 48 hours after the removal of the compound. […]

[2] = test system: no small cell lung carcinoma NCI-H460; test: Cytotoxicity test (sulphorodamine B), NCI-H460; conditions: Homo sapiens, 24 h incubation, survival 48 h after removal
Description: as §1, §2, §3

[3] = test system: human prostate carcinoma PC3 cells; test: Cyto-fluorometric cell cycle analysis, PC3; design: key to APOPTOSIS: % of cells (cell cycle phase percentages)
Method: To evaluate the effect of the compound according to the invention, on various phases of the cell cycle, cyto-fluorometric cell cycle analyses were performed.
On the third day of treatment 500.000 cells were sampled, centrifuged at 180×g for 5 minutes, washed twice in calcium and magnesium free PBS. The cells (1×10^6/ml of fixative) were fixed for at least 1 hour in a fixation mixture comprised of acetone/methanol 1:4 v/v maintained at −20° C. and 50% of calcium and magnesium free PBS; then the cells were centrifuged, washed in calcium and magnesium free PBS, and again centrifuged and washed. The cellular precipitate was incubated for 30 minutes in the dark at room temperature with 200 μl of […] (100 μg/ml) and 200 μl of RNAse (150 KU/mg).
The samples with filtered through nylon filters (60-80 μm diameter) and analysed by cyto-fluorimeter FACScan (Becton Dickinson), acquiring 20000 events/sample, at an excitation wavelength of 488 nm and emission wavelength of 620 nm. The analysis of the percentages of the cell cycle phases was performed using a dedicated software package, Modfit v. 2.0 (Becton Dickinson).
For the cell cycle analysis of prostate carcinoma cells PC3, the cells were seeded in plates at a density of 500000 cells/ml in RPMI medium. After treatment with compound ST1926 for 24 hours, cells were analysed as described above.

[4] = PC3, 0.02 μM, 24 hours of treatment and 0 hours of recovery
[5] = PC3, 0.02 μM, 24 hours of treatment and 24 hours of recovery
[6] = PC3, 0.05 μM, 24 hours of treatment and 0 hours of recovery
[7] = PC3, 0.05 μM, 24 hours of treatment and 24 hours of recovery
[8] = PC3, 0.1 μM, 24 hours of treatment and 0 hours of recovery
[9] = PC3, 0.1 μM, 24 hours of treatment and 24 hours of recovery
[10] = PC3, 0.2 μM, 24 hours of treatment and 24 hours of recovery

For `O=C(O)/C=C/c1ccc(-c2ccc(O)c(C34CC5CC(CC(C5)C3)C4)c2)cc1` [ST1926, E-4-(3-(1-adamantyl)-4-hydroxyphenyl)cinnamic acid], the IC50 [1] was 0.33 µM, the IC50 [2] was 0.19 µM and the APOPTOSIS [3, 4] was 9. For the same molecule, the G0/G1 [3, 4] was 54.0, the “G2 + M” value [3, 4] was 21.8 and the S [3, 4] was 24.2. The APOPTOSIS [3, 5] was 13, the G0/G1 [3, 5] was 44.6 and the “G2 + M” value [3, 5] was 25.0. The S [3, 5] was 30.4, the APOPTOSIS [3, 6] was 11 and the G0/G1 [3, 6] was 55.8. For the same molecule, the “G2 + M” value [3, 6] was 20.6, the S [3, 6] was 23.6 and the APOPTOSIS [3, 7] was 15. For the same molecule, the G0/G1 [3, 7] was 44.9, the “G2 + M” value [3, 7] was 25.6 and the S [3, 7] was 29.5. For the same molecule, the APOPTOSIS [3, 8] was 10, the G0/G1 [3, 8] was 52.0 and the “G2 + M” value [3, 8] was 28.0. It also gave an S [3, 8] of 35.4, an APOPTOSIS [3, 9] of 10 and a G0/G1 [3, 9] of 45.8. For the same molecule, the “G2 + M” value [3, 9] was 28.4, the S [3, 9] was 25.8 and the APOPTOSIS ([3]; PC3, 0.2 μM, 24 hours of treatment and 0 hours of recovery) was 13.5. For the same molecule, the APOPTOSIS [3, 10] was 13, the G0/G1 [3, 10] was 31.8 and the “G2 + M” value [3, 10] was 25.0. The S [3, 10] was 43.2, the “effect on PC3 cells at the end of treatment (in words)” value ([3]; PC3, 0.4 μM, 24 hours of treatment) was “induced apoptosis” and the APOPTOSIS ([3]; PC3, 0.4 μM, 24 hours of treatment and 0 hours of recovery) was 25. For the same molecule, the APOPTOSIS ([3]; PC3, 0.4 μM, 24 hours of treatment and 24 hours of recovery) was 26.

Reference: US7449495B2, “Retinoid derivatives with antiangiogenic, antitumoral and proapoptotic activities” (Sigma-Tau Industrie Farmaceutiche Riunite S.p.A., priority 2001, dated 2008)
